Values after ≈ are worked out from the molar mass of the structure shown. Read-outs that look alike come from different tables or passages of the source.
Legend:
Streptococcus pyogenes = assay: Growth inhibition (MIC), Streptococcus pyogenes; assay type: cell-based; details: Streptococcus pyogenes L49
Description: (§1) The antibacterial activity is determined by evaluating the effect on the growth kinetics as described (Holowachuka S, Bal'ab M, Buddington R., 2003, J. Microbiol. Meth. 55, 441-446). Micro-organisms are grown in either Todd Hewitt medium (Streptococcus pyogenes) or cation-adjusted Mueller Hinton Broth (S. aureus, E. faecium, M catarrhalis, E. coli, P. aeruginosa, S. maltophilia) on 96-well microtiter plates. Each bacterial strain is inoculated with 5×10^4 CFU/ml and incubated at 37° C. on the Synergy 2 reader (BioTek), and the optical density is monitored at 595 nm for 48 h.

NSO nuclear extract = assay: RNAP inhibition, NSO nuclear extract; assay type: biochemical, mouse
B. subtilis RNAP = molecular target: T1, B. subtilis RNAP (Bacillus subtilis, UniProt P37870+P37871); assay: RNAP inhibition, B. subtilis RNAP; assay type: biochemical
T1 construct: an RNAP purified from either Escherichia coli (Sigma Aldrich) or Bacillus subtilis; made in house; host or cells: Bacillus subtilis
Description: (§2) The effect of PUM on bacterial RNAP is measured using an RNAP purified from either Escherichia coli (Sigma Aldrich) or Bacillus subtilis as described by Qi and Hulett (Qi Y, Hulett F M., Mol. Microbiol. 1998, 28(6):1187-1197). The bacterial RNAPs are used at 1.1 mg/ml, while the RNAP from bacteriophage T7 (Promega Corporation) is used at 20 U/ml. The nuclear extracts from HeLa cells (Human cervix carcinoma fibroblast; Promega Corporation) or NSO cells (non IgG secreting mouse myeloma lymphoblast; prepared as described by Dignam J D, Lebovitz R M, Roeder R G., Nucleic Acids Res. 1983, 11(5):1475-89) are used at 18 mg/ml. The reaction mixtures (50 μl) contain 40 mM Tris-HCl (pH 7.9), 6 mM MgCl2, 2 mM spermidine, 10 mM NaCl, 10 mM DTT, 10 μg/ml bovine serum albumin, 100 μM ATP, CTP and GTP, 2 μM UTP, 0.5 μCi [α-^32P]UTP, PUM at the desired concentration, RNAP and template DNA. The templates used for the transcription are the plasmid pGEM3Z (20 nM; Promega Corporation) for the bacterial and phagic RNAPs, and DNA derived from calf thymus (20 μg/ml; Sigma Aldrich) for the eukaryotic polymerases. After 30 min. (bacterial and phagic RNAPs) or 60 min. at 37° C., the amount of radioactivity obtained after precipitation with trichloroacetic acid is measured as previously described (Mariani R, Granata G, Maffioli S I, Serina S, Brunati C, Sosio M, Marazzi A, Vannini A, Patel D, White R, Ciabatti R. Bioorg Med Chem Lett. 2005, 15(16):3748-3752).

B. subtilis β(Q469R) = B. subtilis β(Q469R) (Bacillus subtilis, UniProt P37870+P37871, Q469R); assay: RNAP inhibition, rifampicin-resistant B. subtilis RNAP; assay type: biochemical
[1] = system: Neisseria meningitidis L1612; assay: Growth inhibition (MIC), Neisseria meningitidis; assay type: cell-based
[2] = system: Moraxella catarrhalis L3294; assay: Growth inhibition (MIC), Moraxella catarrhalis; assay type: cell-based
Description: as §1

[3] = system: Haemophilus influenzae L3296; assay: Growth inhibition (MIC), Haemophilus influenzae; assay type: cell-based
E. coli RNAP = molecular target: T2, E. coli RNAP (Escherichia coli, UniProt P0A8T7+P0A8V2); assay: RNAP inhibition, E. coli RNAP; assay type: biochemical
T2 construct: an RNAP purified from either Escherichia coli (Sigma Aldrich) or Bacillus subtilis; purchased Sigma Aldrich; host or cells: Escherichia coli
Description: as §2

S. pyogenes C203 = assay: S. pyogenes peritonitis model in mice; assay type: in vivo, ICR female mice; details: for ED50: Streptococcus pyogenes
Description: ICR female mice (Harlan Italia) weighing 23-25 g are acclimated (23±2° C., humidity, 55±10% humidity) for one week before the experiment. The infection is induced by intraperitoneal injection of 4×10^3 CFU of S. pyogenes […] in 0.5 mL of saline containing 1% peptone. 48-72 h after infection, this inoculum leads to a mortality of at least 95% in untreated controls. Eight mice per group for each dose are treated with 0.25 mL of PUM prepared in 5% dextrose. Two different experiments were performed: in the first experiment, PUM is administered intravenously 10 min. after the infection and 6 hours later; in the second experiment, PUM is administered as a single intravenous or subcutaneous dose 10 min. after infection. The mortality of the animals is recorded daily. The ED50 (50% effective dose) and 95% confidence limits are calculated as described (Finney, D. J. 1952. The Spearman-Kärber method. P. 524-30. In D. J. Finney (ed.) Statistical method in biological assay. Charles Griffin & Company Limited, London) for surviving animals at day 7 at each dose.

T7 RNAP = molecular target: T3, T7 RNAP (Escherichia phage T7, UniProt P00573); assay: RNAP inhibition, T7 RNAP; assay type: biochemical, bacteriophage T7
T3 construct: purchased Promega Corporation
Description: as §2, with “The templates used for the transcription are the plasmid pGEM3Z (20 nM; Promega Corporation) for the bacterial and phagic RNAPs, and DNA derived from calf thymus (20 μg/ml; Sigma Aldrich) for the eukaryotic polymerases. After 30 min.” left out

Streptococcus pneumoniae = assay: Growth inhibition (MIC), Streptococcus pneumoniae; assay type: cell-based
Description: [Worded in the source for another organism; used here, by the source, with some conditions changed.] as §1

bacterial RNAP [4] = system: T4, bacterial RNAP; assay: Inhibition of bacterial RNAP; assay type: biochemical; details: RNAP of both Gram-positive and Gram-negative bacteria; read-out: IC50 (concentration producing 50% inhibition of enzyme activity), bacterial RNAP
T4 construct: other: RNAP of both Gram-positive and

[5] = system: Gram-positive and Gram-negative susceptible, resistant and multi-resistant pathogenic bacteria; assay: Growth inhibition of pathogenic bacteria; assay type: cell-based; details: human serum 30%
Description: as §1

HeLa nuclear extract = assay: RNAP inhibition, HeLa nuclear extract; assay type: biochemical, Human
bacterial RNAP [6] = molecular target: T5, bacterial RNAP (UniProt P0A8T7+P0A8V2); assay: Inhibition of bacterial RNAP; assay type: biochemical; details: read-out: IC50, bacterial RNAP; reaction mixture used as is for the bioactivity tests
T5 construct: other: reaction mixture used as is for the bioactivity tests

T2 sequence (P0A7Z4 whole entry): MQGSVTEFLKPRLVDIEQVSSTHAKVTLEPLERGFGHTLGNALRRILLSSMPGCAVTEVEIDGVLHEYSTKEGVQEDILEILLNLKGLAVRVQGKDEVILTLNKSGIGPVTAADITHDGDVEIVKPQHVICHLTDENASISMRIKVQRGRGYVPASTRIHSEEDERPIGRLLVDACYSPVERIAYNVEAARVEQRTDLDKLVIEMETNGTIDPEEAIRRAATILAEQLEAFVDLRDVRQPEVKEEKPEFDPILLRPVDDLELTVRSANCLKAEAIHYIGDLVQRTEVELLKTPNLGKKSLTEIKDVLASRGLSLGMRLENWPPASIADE
T2 sequence (P0A800 whole entry, further chain): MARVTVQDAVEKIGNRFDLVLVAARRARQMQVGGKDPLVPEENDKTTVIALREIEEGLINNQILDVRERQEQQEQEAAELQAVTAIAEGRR
T2 sequence (P0A8V2 whole entry): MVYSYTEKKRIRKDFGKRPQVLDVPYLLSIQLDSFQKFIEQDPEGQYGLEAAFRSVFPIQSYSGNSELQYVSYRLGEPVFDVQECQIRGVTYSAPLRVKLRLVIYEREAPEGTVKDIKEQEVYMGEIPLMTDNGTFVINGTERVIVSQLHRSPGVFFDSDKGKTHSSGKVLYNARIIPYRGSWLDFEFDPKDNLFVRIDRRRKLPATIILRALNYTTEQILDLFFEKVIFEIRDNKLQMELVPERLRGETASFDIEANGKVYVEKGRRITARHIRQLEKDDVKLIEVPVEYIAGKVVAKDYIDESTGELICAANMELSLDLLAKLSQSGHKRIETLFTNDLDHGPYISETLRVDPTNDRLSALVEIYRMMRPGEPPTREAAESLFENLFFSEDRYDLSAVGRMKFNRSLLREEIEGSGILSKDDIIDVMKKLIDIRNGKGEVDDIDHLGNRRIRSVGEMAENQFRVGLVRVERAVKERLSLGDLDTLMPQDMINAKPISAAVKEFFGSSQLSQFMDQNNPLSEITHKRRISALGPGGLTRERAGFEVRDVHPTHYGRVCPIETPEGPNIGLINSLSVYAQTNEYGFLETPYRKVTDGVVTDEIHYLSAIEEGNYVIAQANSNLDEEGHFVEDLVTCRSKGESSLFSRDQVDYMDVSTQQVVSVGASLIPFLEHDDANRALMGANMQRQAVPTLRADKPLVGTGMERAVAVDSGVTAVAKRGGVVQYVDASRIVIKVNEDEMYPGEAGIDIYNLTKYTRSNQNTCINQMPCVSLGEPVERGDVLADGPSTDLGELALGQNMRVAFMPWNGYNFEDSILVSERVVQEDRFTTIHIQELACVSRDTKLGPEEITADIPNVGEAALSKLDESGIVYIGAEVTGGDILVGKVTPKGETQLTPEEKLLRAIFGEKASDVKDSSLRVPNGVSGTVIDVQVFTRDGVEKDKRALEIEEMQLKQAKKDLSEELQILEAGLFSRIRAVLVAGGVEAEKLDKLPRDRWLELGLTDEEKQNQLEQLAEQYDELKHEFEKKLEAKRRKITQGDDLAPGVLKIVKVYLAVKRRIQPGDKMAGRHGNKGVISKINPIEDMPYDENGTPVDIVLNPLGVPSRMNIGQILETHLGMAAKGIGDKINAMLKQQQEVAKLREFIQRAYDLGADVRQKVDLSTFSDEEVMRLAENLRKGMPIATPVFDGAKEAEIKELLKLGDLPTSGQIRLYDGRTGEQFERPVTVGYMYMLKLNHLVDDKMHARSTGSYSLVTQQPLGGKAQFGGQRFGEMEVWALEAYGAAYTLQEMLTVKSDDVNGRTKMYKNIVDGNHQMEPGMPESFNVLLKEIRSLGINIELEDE
T2 sequence (P0A8T7 whole entry): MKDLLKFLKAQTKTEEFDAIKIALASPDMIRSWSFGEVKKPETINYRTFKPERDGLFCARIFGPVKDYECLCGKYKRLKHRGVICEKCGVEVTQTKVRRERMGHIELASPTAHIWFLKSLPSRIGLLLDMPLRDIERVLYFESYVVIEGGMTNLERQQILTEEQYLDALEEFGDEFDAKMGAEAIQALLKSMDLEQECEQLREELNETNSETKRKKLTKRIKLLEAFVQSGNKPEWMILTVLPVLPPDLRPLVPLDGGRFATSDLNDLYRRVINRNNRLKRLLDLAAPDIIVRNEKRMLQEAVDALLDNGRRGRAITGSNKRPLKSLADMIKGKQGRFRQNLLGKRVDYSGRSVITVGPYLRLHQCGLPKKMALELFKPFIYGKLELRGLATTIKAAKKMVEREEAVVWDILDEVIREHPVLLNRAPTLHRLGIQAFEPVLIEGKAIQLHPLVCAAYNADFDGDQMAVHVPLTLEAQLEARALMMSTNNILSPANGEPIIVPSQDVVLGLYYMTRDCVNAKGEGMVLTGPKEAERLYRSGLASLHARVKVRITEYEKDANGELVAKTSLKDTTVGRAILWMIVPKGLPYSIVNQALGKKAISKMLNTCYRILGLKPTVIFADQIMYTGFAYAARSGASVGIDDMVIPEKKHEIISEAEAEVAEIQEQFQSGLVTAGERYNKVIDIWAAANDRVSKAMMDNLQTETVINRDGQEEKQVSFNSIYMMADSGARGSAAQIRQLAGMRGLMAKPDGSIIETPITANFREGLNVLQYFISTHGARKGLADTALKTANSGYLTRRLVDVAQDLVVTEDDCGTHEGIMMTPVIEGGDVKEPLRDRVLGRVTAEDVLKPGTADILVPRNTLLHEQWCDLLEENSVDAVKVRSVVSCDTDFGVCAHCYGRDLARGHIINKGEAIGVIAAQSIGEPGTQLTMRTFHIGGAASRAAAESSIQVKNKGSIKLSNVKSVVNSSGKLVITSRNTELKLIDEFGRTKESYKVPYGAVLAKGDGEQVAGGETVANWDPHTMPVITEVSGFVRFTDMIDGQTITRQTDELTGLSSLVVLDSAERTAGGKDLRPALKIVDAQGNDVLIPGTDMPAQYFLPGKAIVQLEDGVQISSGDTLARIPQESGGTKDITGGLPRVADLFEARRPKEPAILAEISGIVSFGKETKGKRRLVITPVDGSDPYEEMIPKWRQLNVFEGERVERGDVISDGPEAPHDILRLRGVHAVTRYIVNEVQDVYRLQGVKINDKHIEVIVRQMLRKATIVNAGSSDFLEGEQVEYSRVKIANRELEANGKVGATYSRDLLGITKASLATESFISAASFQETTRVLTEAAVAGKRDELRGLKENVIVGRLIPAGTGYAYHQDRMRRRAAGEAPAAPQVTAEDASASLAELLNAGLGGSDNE
T3 sequence (P00573 whole entry): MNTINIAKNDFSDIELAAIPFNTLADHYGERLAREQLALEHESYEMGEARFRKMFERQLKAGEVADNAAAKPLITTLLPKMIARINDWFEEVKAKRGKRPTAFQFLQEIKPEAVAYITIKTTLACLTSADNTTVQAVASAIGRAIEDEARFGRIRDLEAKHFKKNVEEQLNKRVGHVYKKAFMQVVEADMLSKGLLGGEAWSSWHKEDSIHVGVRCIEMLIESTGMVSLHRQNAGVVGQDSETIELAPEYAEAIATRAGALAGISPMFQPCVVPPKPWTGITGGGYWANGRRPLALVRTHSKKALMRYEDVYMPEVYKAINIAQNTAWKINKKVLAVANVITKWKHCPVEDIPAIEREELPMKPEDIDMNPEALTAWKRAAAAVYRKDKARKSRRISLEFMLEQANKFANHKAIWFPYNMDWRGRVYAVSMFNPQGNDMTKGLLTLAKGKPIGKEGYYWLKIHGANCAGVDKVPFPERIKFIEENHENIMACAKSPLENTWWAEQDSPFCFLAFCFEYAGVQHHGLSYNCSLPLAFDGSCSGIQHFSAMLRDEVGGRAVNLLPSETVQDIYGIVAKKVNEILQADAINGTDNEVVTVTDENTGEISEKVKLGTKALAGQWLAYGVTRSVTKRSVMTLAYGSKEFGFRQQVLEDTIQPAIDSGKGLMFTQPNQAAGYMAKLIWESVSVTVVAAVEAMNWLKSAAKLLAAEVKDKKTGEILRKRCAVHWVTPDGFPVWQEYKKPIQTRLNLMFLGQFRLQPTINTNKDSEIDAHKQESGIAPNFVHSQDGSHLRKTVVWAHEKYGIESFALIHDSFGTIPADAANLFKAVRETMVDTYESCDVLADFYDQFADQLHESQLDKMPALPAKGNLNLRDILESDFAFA

`N=C(N)NCC(=O)N(O)[C@@H](CCC(N)=O)C(=O)NC[C@H]1O[C@@H](c2c[nH]c(=O)[nH]c2=O)[C@H](O)[C@@H]1O` [PUM, Pseudouridimycin] gave an MIC (Streptococcus pyogenes; human serum 30% present) of 2 µg/mL, an MIC (Streptococcus pyogenes; human serum absent, read-out: MIC) of 2 µg/mL and an IC50 (NSO nuclear extract) of 205 µM. For the same compound, the IC50 (B. subtilis RNAP) was 400 nM, the IC50 (B. subtilis β(Q469R)) was 100 nM and the cross-resistance with rifampicin (B. subtilis β(Q469R); RNAP inhibition, Table 1) was “without showing any cross-resistance with rifampicin”. The MIC [1] was 10 µg/mL (≈ 20.6 µM), the MIC [2] was 0.8 µg/mL and the MIC [3] was 0.8 µg/mL (≈ 1.64 µM). The IC50 (E. coli RNAP) was 300 nM, the ED50 (S. pyogenes C203; C203, iv, iv: 10 min. and 6 h post-infection, survival at day 7) was 10 mg/kg and the ED50 (S. pyogenes C203; C203, iv, iv: 10 min. post-infection, survival at day 7) was 20 mg/kg. For the same compound, the ED50 (S. pyogenes C203; C203, murine model of Streptococcus peritonitis, regimen not given) was 10 mg/kg, the ED50 (S. pyogenes C203; C203, sc, sc: 10 min. post-infection, survival at day 7) was 20 mg/kg and the “effectiveness after intravenous versus subcutaneous administration” value (S. pyogenes C203; murine Streptococcus peritonitis) was “comparable effectiveness”. The IC50 (T7 RNAP) was > 205 µM, the MIC (Streptococcus pneumoniae; Streptococcus pneumoniae L44, human serum 30% present) was 2 µg/mL and the MIC (Streptococcus pneumoniae; Streptococcus pneumoniae L44, human serum absent) was 3 µg/mL. For the same compound, the MIC (Streptococcus pneumoniae; Streptococcus pneumoniae L899-Rif^R, human serum absent) was 3 µg/mL, the MIC (Streptococcus pneumoniae; Streptococcus pneumoniae L1407-Azi^R, human serum absent) was 3 µg/mL and the MIC (Streptococcus pneumoniae; Streptococcus pneumoniae L1542-Ami^REry^RCli^RGen^RTet^R, human serum absent) was 3 µg/mL. It also gave an MIC (Streptococcus pneumoniae; Streptococcus pneumoniae L2868-8 MDR, human serum absent) of 3 µg/mL, an MIC (Streptococcus pneumoniae; Streptococcus pneumoniae L3909-Pen^REry^RChl^RCtr^R, human serum absent) of 2 µg/mL and an MIC (Streptococcus pneumoniae; Streptococcus pneumoniae ND061311-Pen^RAzi^R, human serum absent) of 3 µg/mL. The IC50 (bacterial RNAP [4]) was 300 to 400 nM, the “effect of human serum on antibacterial activity” value [5] was “not affected by the presence of human serum” and the IC50 (HeLa nuclear extract) was > 74 µM.
For `CO[C@H]1/C=C/O[C@@]2(C)Oc3c(C)c(O)c4c(O)c(c(/C=N/N5CCN(C)CC5)c(O)c4c3C2=O)NC(=O)/C(C)=C\C=C\[C@H](C)[C@H](O)[C@@H](C)[C@@H](O)[C@@H](C)[C@H](OC(C)=O)[C@@H]1C` [Rif, rifampicin, reference compound], the IC50 (B. subtilis RNAP) was 50 nM, the IC50 (B. subtilis β(Q469R)) was > 121000 nM and the IC50 (E. coli RNAP) was 60 nM. For the same compound, the IC50 (T7 RNAP) was > 121 µM.
Compound `N=C(N)NCC(=O)N(O)[C@@H](CCC(=O)NCc1ccccc1)C(=O)NC[C@H]1O[C@@H](c2c[nH]c(=O)[nH]c2=O)[C@H](O)[C@@H]1O` [compound III, PUM benzylamide] has an IC50 (bacterial RNAP [6]) of 4 µM.
Compound `CCc1c(Cl)c(O)c(Cl)c(O)c1C(=O)O[C@H]1[C@H](O)[C@H](OC)[C@H](OC/C2=C\C=C\C[C@H](O)/C(C)=C/[C@H](CC)[C@@H](O[C@@H]3OC(C)(C)[C@@H](OC(=O)C(C)C)[C@H](O)[C@@H]3O)/C(C)=C/C(C)=C/C[C@@H]([C@@H](C)O)OC2=O)O[C@@H]1C` [Fdx, fidaxomicin, reference compound] has an IC50 (NSO nuclear extract) of 42 µM, an IC50 (B. subtilis RNAP) of 900 nM and an IC50 (B. subtilis β(Q469R)) of 700 nM. For the same compound, the IC50 (E. coli RNAP) was 5500 nM and the IC50 (HeLa nuclear extract) was > 92 µM.
